According to patent US5656288A, “Stable pharmaceutical compositions containing tiludronate hydrates and process for producing the pharmaceutical compositions” (Sanofi Winthrop, Inc., priority 1995, dated 1997):
“Also recorded” adds a separate entry of the source.

Legend:
[1] = Hygroscopicity: water content by TGA after storage at defined relative humidity; assay type: physicochemical
Description: (§1) Samples of disodium tiludronate hemihydrate were stressed at humidity levels of 12-95% RH using different saturated salt solutions to obtain a range of relative humidity. The salt solutions used and the corresponding relative humidity are tabulated below:
(§2) The samples were held for 2 weeks at each humidity at 20° C. and analyzed by TGA for moisture content. The samples were also analyzed by FTIR to determine if spectroscopic changes were observed. Samples which increased in moisture content after 2 weeks were then moved to lower relative humidity to determine if the water uptake was reversible.
A sample of the monohydrate form was also stressed with respect to humidity. Samples were stressed at 58-95% RH at 20° C. for 2 weeks.
B) Thermal Gravimetric Analysis (TGA)
Thermal Gravimetric Analysis was performed on the Perkin Elmer TGA-7 system. Samples were weighed into a platinum pan and scanned at a rate of 5° C./min. under nitrogen purge gas.

[2] = Hysteresis / reversibility of water uptake on moving to lower relative humidity; assay type: physicochemical; conditions: for stability / reversion at low relative humidity: moved to humidity as low as 31% RH after 75-95% RH
Description: as §2
Hysteresis data (samples stored at high humidity were moved from high to low humidity) for samples stressed at 75-95% RH is shown in FIG. 1b. […] If the moisture was hygroscopic in nature one would expect the moisture level to decrease as the humidity level is decreased.

[3] = Crystal form change under humidity stress (FTIR, XRPD, TGA); assay type: physicochemical; conditions: for changes by TGA / FTIR at low relative humidity: 12-58% RH, 2 weeks; for crystal form change (FTIR, TGA): 75-85% RH (75% and 84% RH samples); for crystal form change (FTIR, XRPD, TGA): 95% RH
Description: as §1, §2
C) Fourier Transform Infrared Spectroscopy (FTIR)
FTIR spectra were obtained on the Nicolet 730 system equipped with an MCT detector. Samples were run as KBr dispersions at approximately 1% concentration.
D) X-Ray Powder Diffraction (XRPD)
XRPD data was provided by Kodak Analytical Technology Division (Rochester, N.Y.) using a Rigaku RU 300 system at […].

[4] = Solubility in acetate buffer pH 4.8, 20° C.; assay type: physicochemical; conditions: for solubility (concentration in acetate buffer): 30 min
Description: The solubility of unstressed hemihydrate, the monohydrate form and a sample which was equilibrated at 95% RH, i.e. tetrahydrate were compared in acetate buffer. A pH value of 4.8 was chosen. Approximately 250 mg of drug was added to 1 ml of solvent and agitated with a laboratory rotator at 20° C. The sample was filtered (0.45 micron) and diluted (200 ul to 25 ml). This solution was then diluted by a factor of 5 prior to UV analysis. Samples were analyzed at time points of 0.5, 3.0, and 24 hours with the Hewlett Packard 8451A diode array spectrophotometer. Absorbance was measured at 264 nm versus a standard prepared in acetate buffer. The solubility was determined (based on anhydrous drug) for two different samples (of each form) at each time point.

[5] = Intrinsic dissolution rate in acetate buffer pH 4.8, 20° C.; assay type: physicochemical; conditions: for intrinsic dissolution rate (average slope): acetate buffer pH 4.8, 20° C., 100 RPM, triplicate
Description: F) Intrinsic Dissolution Rate
The intrinsic dissolution rates of hemihydrate, the monohydrate form and tetrahydrate form were determined in acetate buffer (pH=4.8) at 20° C. A disk (0.5 cm^2) was compressed under the following conditions: 225-250 mg drug, 4000 lbs pressure, and 30 seconds compaction time. The disk was dissolved in a Vander Kamp VK 6000 dissolution bath in 250 ml solvent at 100 RPM. Samples were withdrawn at 2, 4, 6, 8, 10 and 15 minutes and diluted by a factor of 2 for UV analysis. Samples were analyzed at 264 nm with the Hewlett Packard 8451A diode array spectrophotometer. Intrinsic dissolution plots were generated by plotting concentration/area vs. time and determining the slope by linear regression. Each dissolution experiment was run in triplicate.

[6] = ambient temperature and humidity
[7] = listed as disodium tiludronate hemihydrate, hemihydrate

## O=P(O)(O)C(Sc1ccc(Cl)cc1)P(=O)(O)O [Tiludronate, disodium 4-chlorophenylthiomethylenebisphosphonate]
[1]; increasing RH
  moisture content as relative humidity is increased: does not increase in moisture content as relative humidity is increased until a relative humidity is reached where crystalline changes occur

## O=P(O)(O)C(Sc1ccc(Cl)cc1)P(=O)(O)O [hemihydrate, disodium 4-chlorophenylthiomethylenebisphosphonate hemihydrate]
[1]; 12-58% RH, 20° C., 2 weeks
  water content (TGA analysis): approximately 5%
[1]; 75% RH, 20° C., 2 weeks
  water content: 8.4%
[1]; 84% RH, 20° C., 2 weeks
  water content: 13.7%
[1]; 95% RH, 20° C., 2 weeks
  moisture level / total weight loss (TGA): 16.4%
[2]; [7]
  stability / reversion at low relative humidity: did not revert at 31% RH
[2]; samples stressed at 75-95% RH
  moisture level on moving stepwise to lower relative humidity (hysteresis): not reversible
[3]; hemihydrate
  changes by TGA / FTIR at low relative humidity: no changes in spectra
  crystal form change (FTIR, TGA): partial change to monohydrate and tetrahydrate
  crystal form change (FTIR, XRPD, TGA): conversion of the hemihydrate to the tetrahydrate form; also recorded: significant change in the FTIR spectra and X-ray pattern indicative of crystalline rearrangement
[3]; [7]
  changes by TGA / FTIR at low relative humidity: no changes by TGA and FTIR
  crystal form change (FTIR, TGA): partial transformation to the tetrahydrate form; also recorded: mixture of forms
  crystal form change (FTIR, XRPD, TGA): crystalline changes accompany the increase in moisture content; also recorded: changed to a tetrahydrate form
[4]; acetate buffer, pH 4.8, aqueous buffer, pH 4.8, 20° C., 0.5 hours, based on anhydrous drug, read-out: solubility (concentration in acetate buffer)
  solubility at 0.5 h: 147 mg/mL
[4]; pH 4.8, 20° C., 24 hours
  solubility at 24 hours relative to tetrahydrate: equivalent to the tetrahydrate
[4]; pH 4.8, 20° C., initial
  initial solubility relative to tetrahydrate: higher than the tetrahydrate form
[4]; pH 4.8, residual solid
  FTIR analysis of residual solid in solubility samples: conversion to the tetrahydrate
[5]; hemihydrate
  intrinsic dissolution rate (average slope): 0.0332 mg/(ml*cm^2 *min)
  FTIR analysis of the disk at the end of the dissolution experiment: conversion to the tetrahydrate form was occurring

## O=P(O)(O)C(Sc1ccc(Cl)cc1)P(=O)(O)O [monohydrate, disodium 4-chlorophenylthiomethylene-bisphosphonate monohydrate]
[4]; pH 4.8, 20° C., 0.5 hours, based on anhydrous drug, monohydrate
  solubility (concentration in acetate buffer): 175 mg/mL
[5]; monohydrate
  intrinsic dissolution rate (average slope): 0.0351 mg/(ml*cm^2 *min)
  FTIR analysis of the disk at the end of the dissolution experiment: did not show transformation to the tetrahydrate

## O=P(O)(O)C(Sc1ccc(Cl)cc1)P(=O)(O)O [tetrahydrate, disodium 4-chlorophenylthiomethylenebisphosphonate]
[2]
  stability / reversion at low relative humidity: stability of the tetrahydrate form at humidity levels as low as 31% RH
[3]
  crystal form change (FTIR, XRPD, TGA): little evidence of the monohydrate form
[4]; pH 4.8, 20° C., 0.5 hours, based on anhydrous drug
  solubility (concentration in acetate buffer): 140 mg/mL
[5]
  intrinsic dissolution rate (average slope): 0.0359 mg/(ml*cm^2 *min)
[6]
  conversion to monohydrate or hemihydrate: not convened to either the monohydrate or hemihydrate form thereof at ambient temperature and humidity
